Measured values from paper PMC11677243, “Target protein identification in live cells and organisms with a non-diffusive proximity tagging system” (eLife, 2024).

Columns and labels:
VPS37C [1] = target: T1, VPS37C (Homo sapiens, UniProt A5D8V6); assay: MST binding to Cy5-labeled VPS37C; details: purified recombinant VPS37C; n = 2, mean ± s.d.
T1 construct: expressed in transfected cells; host or cells: HEK293T
Method: (§1) SEPHS2-2xV5, VPS37C-2xV5, VPS29, TRAPPC3, TOM1, and TOM1L2 were labeled using Cy5-NHS ester (A100932, Sangon Biotech, China). Briefly, each target protein was diluted to 10 µM in PBS and underwent buffer exchange with PBS using a Zeba spin desalting column (89882, Thermo Scientific, USA) to remove Tris. The labeling reaction consisted of 80 µl of 10 µM target protein, 10 µl of 1 M NaHCO3 pH 8.3, and 10 µl of 1 mM Cy5-NHS ester in DMSO, and was incubated at 4°C overnight. The next day, unlabeled dyes were removed using Zeba spin desalting columns, and labeling efficiency was assessed by measuring the concentration of Cy5 with a UV-Vis spectrophotometer (SMA5000, Merinton, China). […] Cy5-labeled SEPHS2-2xV5 (5 nM), VPS37C-2xV5 (5 nM), VPS29 (10 nM), TRAPPC3 (10 nM), TOM1 (10 nM), or TOM1L2 (10 nM) was mixed with the corresponding diluted compound in a total volume of 20 µl, and then loaded into Monolith premium capillaries (MO-K025, NanoTemper, Germany). Binding affinity analysis was performed using a NanoTemper Monolith NT.115 instrument (NanoTemper). Kd values were obtained using MO.Affinity Analysis 2.3.0 software (NanoTemper).

VPS29 = target: T2, VPS29 (Homo sapiens, UniProt Q9UBQ0); assay: MST binding to Cy5-labeled VPS29
T2 construct: 6xHis (pET28a, Ni column purification); made in house; host or cells: E. coli BL21(DE3)
Method: as §1

TOM1 = target: T3, TOM1 (Homo sapiens, UniProt O60784); assay: MST binding to Cy5-labeled TOM1; details: n = 2
T3 construct: 6xHis (pET28a, Ni column purification); made in house; host or cells: E. coli BL21(DE3)
T3 sequence (O60784 whole entry): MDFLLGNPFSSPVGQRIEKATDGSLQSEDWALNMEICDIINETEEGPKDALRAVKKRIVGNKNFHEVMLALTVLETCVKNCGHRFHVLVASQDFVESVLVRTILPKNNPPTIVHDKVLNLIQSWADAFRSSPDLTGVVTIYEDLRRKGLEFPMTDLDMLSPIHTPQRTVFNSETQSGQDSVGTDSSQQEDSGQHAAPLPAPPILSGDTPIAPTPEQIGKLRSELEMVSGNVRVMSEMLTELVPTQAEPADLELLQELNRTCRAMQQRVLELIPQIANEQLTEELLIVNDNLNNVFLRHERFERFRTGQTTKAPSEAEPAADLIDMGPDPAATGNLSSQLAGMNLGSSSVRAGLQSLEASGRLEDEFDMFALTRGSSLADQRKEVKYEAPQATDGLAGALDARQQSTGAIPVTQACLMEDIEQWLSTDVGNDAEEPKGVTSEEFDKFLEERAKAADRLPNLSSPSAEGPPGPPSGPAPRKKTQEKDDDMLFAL
Method: as §1

TOM1L2 = target: T4, TOM1L2 (Homo sapiens, UniProt Q6ZVM7); assay: MST binding to Cy5-labeled TOM1L2; details: n = 2
T4 construct: 6xHis (pET28a, Ni column purification); made in house; host or cells: E. coli BL21(DE3)
T4 sequence (Q6ZVM7 1-507): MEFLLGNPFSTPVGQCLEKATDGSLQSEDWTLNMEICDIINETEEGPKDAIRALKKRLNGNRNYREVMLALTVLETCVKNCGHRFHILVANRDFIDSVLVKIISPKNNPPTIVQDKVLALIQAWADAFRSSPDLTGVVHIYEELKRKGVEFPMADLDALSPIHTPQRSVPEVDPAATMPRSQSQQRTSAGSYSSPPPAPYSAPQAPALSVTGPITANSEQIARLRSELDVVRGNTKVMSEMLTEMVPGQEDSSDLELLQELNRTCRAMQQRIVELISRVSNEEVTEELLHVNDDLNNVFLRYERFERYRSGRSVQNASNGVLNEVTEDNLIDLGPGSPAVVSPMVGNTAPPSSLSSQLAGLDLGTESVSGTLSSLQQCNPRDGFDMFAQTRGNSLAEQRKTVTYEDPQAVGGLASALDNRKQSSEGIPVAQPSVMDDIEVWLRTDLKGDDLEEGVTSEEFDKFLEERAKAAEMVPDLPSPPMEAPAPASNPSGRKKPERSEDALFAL
Method: as §1

TRAPPC3 = target: T5, TRAPPC3 (Homo sapiens, UniProt O43617); assay: MST binding to Cy5-labeled TRAPPC3; details: n = 2
T5 construct: 6xHis (pET28a, Ni column purification); made in house; host or cells: E. coli BL21(DE3)
T5 sequence (O43617 whole entry): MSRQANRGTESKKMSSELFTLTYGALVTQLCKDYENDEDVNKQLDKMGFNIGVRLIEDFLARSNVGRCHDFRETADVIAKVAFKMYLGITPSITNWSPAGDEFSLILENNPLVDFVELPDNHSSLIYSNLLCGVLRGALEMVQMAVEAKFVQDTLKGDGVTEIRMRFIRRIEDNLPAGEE
Method: as §1

LC3-II [2] = assay: Autophagy inhibition by LC3-II western blot in HEK293T cells; assay type: cell-based, Homo sapiens; details: 12 hr
Text: (§2) Cells transfected and/or treated with different compounds were harvested at the end of treatment.

LC3-II [3] = assay: Autophagy inhibition by LC3-II western blot in A375 cells; assay type: cell-based, Homo sapiens; details: 12 hr
Text: as §2

VPS37C-V5 = target: T6, VPS37C-V5 (Homo sapiens, UniProt A5D8V6); assay: POST-IT labeling and streptavidin pulldown of VPS37C-V5 in HEK293T cells; assay type: cell-based; details: 200 nM DC661-H1 with 2 µM competitor
T6 construct: expressed in transfected cells; host or cells: HEK293T
T6 sequence (A5D8V6 whole entry): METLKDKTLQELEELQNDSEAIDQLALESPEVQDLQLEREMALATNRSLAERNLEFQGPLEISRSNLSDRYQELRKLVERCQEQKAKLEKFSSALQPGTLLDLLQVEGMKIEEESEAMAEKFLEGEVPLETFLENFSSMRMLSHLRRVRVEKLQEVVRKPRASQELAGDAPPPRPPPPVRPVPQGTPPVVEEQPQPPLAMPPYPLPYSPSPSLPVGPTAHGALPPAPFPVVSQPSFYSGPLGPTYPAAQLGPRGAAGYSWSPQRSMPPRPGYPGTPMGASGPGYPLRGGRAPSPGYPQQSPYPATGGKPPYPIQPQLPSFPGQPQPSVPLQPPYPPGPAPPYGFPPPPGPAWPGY

VPS37C [4] = target: T1, VPS37C; assay: Cellular thermal shift assay (CETSA) on cell lysates; assay type: binding; details: 20 µM compound, 47°C to 59°C
Method: […] cells were cultured on a 100 mm dish and transfected with 10 µg of VPS37C-2xV5 plasmid. Forty-eight hours later, the cells were washed twice with ice-cold PBS, harvested in 1 ml of PBS buffer supplemented with 0.4% NP-40 and 0.5×protease inhibitor cocktail, incubated for 15 min with gently rotation at room temperature, and centrifuged at maximum speed for 15 min at 4°C. The supernatant was transferred to a new 1.5 ml microtube, and protein concentration was determined by a BCA assay. Cell lysates were diluted to a concentration of 2 mg/ml and divided into two groups. The drug group was treated with 20 µM of DC660 or HCQ, while the control group received the same amount of DMSO. After a 20 min incubation at room temperature, cell lysates were gently mixed and aliquoted into PCR tubes with 40 µl each, then subjected to heat treatment for 4 min, ranging from 47°C to 59°C in 2°C increments, and cooled to room temperature on a T100 thermal cycler (Bio-Rad, USA). Subsequently, cell lysates were transferred to 1.5 ml microtubes and centrifuged at maximum speed for 20 min at 4°C to precipitate unstable insoluble proteins. The supernatant was transferred to a new 1.5 ml microtube, and 10 µl of 5×SDS sample buffer was added to each tube. Samples were boiled at 95°C for 5 min and processed for western blot analysis.

Myc-Halo^8KR-PafA = target: T7, Myc-Halo^8KR-PafA (Rhodococcus rhodochrous, UniProt P0A3G2, A155T/A167V/A172T/A224E/C128F/C176G/D78G/E160R/E257R/H272N/K117R/K124R/K175M/K195N/K236R/K263R/K71R/K74R/L47V/L88M/N227D/P291S/S58T/T264A/Y273L/Y87F); assay: Halo-biotin competition assay (western blot, streptavidin-HRP); assay type: binding, Corynebacterium glutamicum; details: 2 μM DH1 preincubation, 1 μM Myc-Halo^8KR-PafA, then 5 μM Halo-Biotin
T7 construct: 6xHis (Ni column purification); made in house; host or cells: E. coli BL21(DE3)
T7 sequence (P0A3G2 other isoform, or with tags, fused parts or gaps with the stated changes): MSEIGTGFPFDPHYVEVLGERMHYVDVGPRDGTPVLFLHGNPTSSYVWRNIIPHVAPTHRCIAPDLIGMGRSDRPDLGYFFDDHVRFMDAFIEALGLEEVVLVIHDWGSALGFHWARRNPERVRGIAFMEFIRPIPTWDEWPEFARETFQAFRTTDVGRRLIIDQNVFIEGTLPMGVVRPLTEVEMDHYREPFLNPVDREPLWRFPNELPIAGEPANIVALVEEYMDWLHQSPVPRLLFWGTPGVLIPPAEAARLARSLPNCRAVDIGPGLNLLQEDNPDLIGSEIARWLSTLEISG
Method: Figure 2. Optimized Halo-PafA and Pup substrates efficiently promote pupylation in vitro in a proximity-dependent manner. […] (B) Comparison of proximity-tagging by different Halo-PafA derivatives on in vitro pupylation. (C) Comparison of different Pup substrates on in vitro pupylation with 500 nM DH1. […] (B–D) All reactions were conducted with 1 μM of a Halo-PafA derivative, 10 μM of one of the different Pup substrates, and 0.5 μM of a purified short SRC with a 2xV5 tag, SRC(247-536)-2xV5, at 37°C for 30 min. Pupylation levels of SRC were assessed by immunoblot (IB) using an anti-V5 antibody. Figure 2—source data 1. […] Figure 2—source data 2. […] Figure 2—figure supplement 1. Synthesis of dasatinib-Halo derivative 1 (DH1). Reagents and conditions: (a) HATU, DIPEA, DMF, RT, 2 hr; (b) NaOH, THF, H2O, RT, 2 hr. RT, room temperature. [drawing 4] Figure 2—figure supplement 2. Representative spectra of DH1. (A) ^1H NMR; (B) HRMS. [drawing 5] Figure 2—figure supplement 3. […] (A) Fluorescence polarization (FP) assay using 2 nM of HaloTag Alexa Fluor-488 (Halo-AF488) at 25°C. n = 2. […] (B) Western blot analysis for the Halo-Biotin competition assay. […] Levels of bound Halo-Biotin were assessed by streptavidin-HRP. (C) Quantitative analysis of western blot results shown in (B). n = 5. […] Pupylation levels of SRC were assessed by immunoblot (IB) using an anti-V5 antibody. […]

SRC = assay: In cellulo pupylation and pulldown assay of SRC in HEK293T cells; assay type: cell-based, Homo sapiens; details: 500 nM DH1
SRC(247-536)-2xV5 = SRC(247-536)-2xV5 (Homo sapiens, UniProt P12931); details: 500 nM DH1, N-terminal Halo^8KR, 37°C, 30 min
SRC(247-536)-2xV5, sequence (P12931 247-536): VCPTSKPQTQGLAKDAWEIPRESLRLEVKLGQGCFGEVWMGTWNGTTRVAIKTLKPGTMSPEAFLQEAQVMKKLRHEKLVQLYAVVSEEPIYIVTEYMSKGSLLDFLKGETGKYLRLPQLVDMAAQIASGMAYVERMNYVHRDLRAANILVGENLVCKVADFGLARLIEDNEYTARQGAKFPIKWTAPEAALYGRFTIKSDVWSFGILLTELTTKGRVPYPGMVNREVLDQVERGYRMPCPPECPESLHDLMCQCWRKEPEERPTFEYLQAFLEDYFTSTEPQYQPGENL

HA-FKBP-EGFP = HA-FKBP-EGFP (Homo sapiens, UniProt P42345+P62942); assay: Rapamycin-induced pupylation of FKBP-EGFP by FRB-mKate2-PafA in HEK293T cells; assay type: cell-based; details: 100 nM rapamycin
HA-FKBP-EGFP, sequence (P62942 whole entry): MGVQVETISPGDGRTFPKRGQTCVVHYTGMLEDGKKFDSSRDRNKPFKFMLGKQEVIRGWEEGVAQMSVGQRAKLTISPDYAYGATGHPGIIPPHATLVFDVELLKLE
HA-FKBP-EGFP, sequence (P42345 2012-2144 limits assumed): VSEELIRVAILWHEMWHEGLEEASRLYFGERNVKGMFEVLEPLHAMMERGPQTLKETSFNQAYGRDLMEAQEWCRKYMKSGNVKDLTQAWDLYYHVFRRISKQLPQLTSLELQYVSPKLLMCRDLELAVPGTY

T1 sequence (A5D8V6 whole entry): as the sequence (A5D8V6 whole entry) above

Kd (VPS37C [1]) [µM] | Kd (VPS29; n = 2, mean ± s.d.) [µM] | binding to TOM1 (MST) (TOM1) | binding to TOM1L2 (MST) (TOM1L2) | binding to TRAPPC3 (MST) (TRAPPC3) | VPS37C binding to DC661-H1 under competition (VPS37C-V5) | thermal stability of VPS37C versus DMSO (CETSA) (VPS37C [4]) | binding to VPS29 (MST dose-response) (VPS29; n = 2) | pupylation of FKBP-EGFP by PafA fused with FRB (HA-FKBP-EGFP) | SMILES | levels of LC3-II band (autophagy inhibition) (LC3-II [2]) | levels of LC3-II band (autophagy inhibition) (LC3-II [3]) | time for efficient linking to Halo^8KR-PafA (Myc-Halo^8KR-PafA) [min] | POST-IT labeling of exogenous and endogenous SRC (SRC) | pupylation of purified recombinant short SRC by Halo^8KR-PafA (SRC(247-536)-2xV5)
0.0215 ± 0.0098 | 25 ± 11.7 | appeared to bind well | appeared to bind well | appeared to bind well | almost completely abolished | more stable | – | – | Clc1ccc2c(NCCCCCCNCCCCCCNc3ccnc4cc(Cl)ccc34)ccnc2c1 [DC660, N^1-(7-Chloroquinolin-4-yl)-N^6-(6-((7-chloroquinolin-4-yl)amino)hexyl)hexane-1,6-diamine] | robust LC3-II bands | robust LC3-II bands | – | – | –
– | – | – | – | – | – | – | – | – | Cc1nc(Nc2ncc(C(=O)Nc3c(C)cccc3Cl)s2)cc(N2CCN(CCNC(=O)CCCCC(=O)NCCOCCOCCOCCOCCCCCCCl)CC2)n1 [DH1, N1-(2-(4-(6-((5-((2-Chloro-6-methylphenyl)carbamoyl)thiazol-2-yl)amino)-2-methylpyrimidin-4-yl)piperazin-1-yl)ethyl)-N6-(18-chloro-3,6,9,12-tetraoxaoctadecyl)adipamide] | – | – | ≤ 15 | significant labeling activity | robust pupylation
16.9 ± 8.7 | – | did not show detectable binding | did not show detectable binding | did not show detectable binding | almost completely abolished | more stable | no binding | – | CCN(CCO)CCCC(C)Nc1ccnc2cc(Cl)ccc12 (centres unmarked) [HCQ, hydroxychloroquine, reference compound] | – | – | – | – | –
– | – | – | – | – | – | – | – | robust pupylation | CO[C@H]1C[C@@H]2CC[C@@H](C)[C@@](O)(O2)C(=O)C(=O)N2CCCC[C@H]2C(=O)O[C@H]([C@H](C)C[C@@H]2CC[C@@H](O)[C@H](OC)C2)CC(=O)[C@H](C)/C=C(\C)[C@@H](O)[C@@H](OC)C(=O)[C@H](C)C[C@H](C)/C=C/C=C/C=C/1C [rapamycin] | – | – | – | – | –
